The record followed here is article PMC2174548 (The Journal of Cell Biology, 2000).

Common to all, as to format: cell-based
For data set [1], the target named is T1, P-glycoprotein (Pgp) (Homo sapiens, UniProt P08183). Put plainly: fluorescence accumulation in PgpCFP-transfected cells.
For data set [2], the target named is T1, P-glycoprotein (Pgp). The data set can be described thus: fluorescence accumulation in PgpGFP-transfected cells.
For data set [3], the target named is T1, P-glycoprotein (Pgp). Put plainly: protection from microtubule depolymerization in PgpGFP-transfected HeLa cells.
For data set [4], the target named is T1, P-glycoprotein (Pgp). The data set can be described thus: cellular drug accumulation versus Pgp expression.
Data set [5] concerns the target T1, P-glycoprotein (Pgp). Put plainly: protection from microtubule depolymerization in PgpGFP-transfected HeLa cells. The source holds these as a separate data set.

T1 sequence (P08183 whole entry): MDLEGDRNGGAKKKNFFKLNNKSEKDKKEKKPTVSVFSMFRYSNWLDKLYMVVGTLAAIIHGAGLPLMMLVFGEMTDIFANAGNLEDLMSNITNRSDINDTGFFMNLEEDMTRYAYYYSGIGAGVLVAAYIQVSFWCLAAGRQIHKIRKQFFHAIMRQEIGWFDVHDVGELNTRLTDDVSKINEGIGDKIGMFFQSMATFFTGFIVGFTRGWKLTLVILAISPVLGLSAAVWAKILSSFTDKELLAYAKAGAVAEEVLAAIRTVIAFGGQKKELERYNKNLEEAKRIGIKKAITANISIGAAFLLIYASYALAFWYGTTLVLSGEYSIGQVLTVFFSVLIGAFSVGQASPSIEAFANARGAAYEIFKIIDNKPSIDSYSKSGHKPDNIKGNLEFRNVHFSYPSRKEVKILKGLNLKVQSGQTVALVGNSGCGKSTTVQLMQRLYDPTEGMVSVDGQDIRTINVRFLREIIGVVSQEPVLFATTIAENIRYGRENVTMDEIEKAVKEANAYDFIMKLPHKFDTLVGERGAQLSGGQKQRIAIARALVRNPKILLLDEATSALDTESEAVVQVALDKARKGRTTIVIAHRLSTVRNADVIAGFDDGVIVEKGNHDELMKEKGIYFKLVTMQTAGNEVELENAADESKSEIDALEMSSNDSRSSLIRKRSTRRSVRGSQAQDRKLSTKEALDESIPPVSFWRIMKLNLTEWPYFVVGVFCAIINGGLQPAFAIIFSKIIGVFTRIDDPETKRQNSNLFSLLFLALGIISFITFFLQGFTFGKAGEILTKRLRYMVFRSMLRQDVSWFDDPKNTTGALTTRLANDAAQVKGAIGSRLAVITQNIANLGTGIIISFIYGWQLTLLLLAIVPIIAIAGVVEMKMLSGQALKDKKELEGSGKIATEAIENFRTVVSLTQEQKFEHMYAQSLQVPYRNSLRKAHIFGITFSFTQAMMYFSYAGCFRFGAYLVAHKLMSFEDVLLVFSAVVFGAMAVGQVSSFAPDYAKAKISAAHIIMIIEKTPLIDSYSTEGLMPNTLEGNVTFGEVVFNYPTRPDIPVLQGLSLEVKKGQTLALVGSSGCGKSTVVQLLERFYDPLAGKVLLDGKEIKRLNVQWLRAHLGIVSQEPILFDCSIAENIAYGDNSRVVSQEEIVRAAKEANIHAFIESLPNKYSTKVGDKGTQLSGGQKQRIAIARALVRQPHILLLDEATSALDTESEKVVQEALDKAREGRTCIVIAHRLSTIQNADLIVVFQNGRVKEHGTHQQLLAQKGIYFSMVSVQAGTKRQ

At P-glycoprotein (Pgp) [1], `CC(=O)OCOC(=O)CN(CC(=O)OCOC(C)=O)Cc1cc2c(cc1OC(C)=O)Oc1cc(OC(C)=O)c(CN(CC(=O)OCOC(C)=O)CC(=O)OCOC(C)=O)cc1C21OC(=O)c2ccccc21` [Calcein AM] came in with an Effects on fluorescence of over 10 fold.
`CC(=O)OCOC(=O)CN(CC(=O)OCOC(C)=O)c1ccc(C)cc1OCCOc1cc2cc(-c3ncc(C(=O)OCOC(C)=O)o3)oc2cc1N(CC(=O)OCOC(C)=O)CC(=O)OCOC(C)=O` [Fura-2 AM] yielded an Effects on fluorescence at P-glycoprotein (Pgp) [2] of over 10 fold.
With `COc1cc2c(c(OC)c1OC)-c1ccc(OC)c(=O)cc1[C@@H](NC(C)=O)CC2` [colchicine], on P-glycoprotein (Pgp) [3], the Fold resistance was 5–25 fold.
In the case of `O=C1c2c(O)ccc(O)c2C(=O)c2c(NCCNCCO)ccc(NCCNCCO)c21` [mitoxantrone], on P-glycoprotein (Pgp) [4], the “cellular drug accumulation versus Pgp expression (data not shown)” value is listed as “the level of Pgp expression was inversely related to the cellular accumulation of mitoxantrone”.
Turning to `CC[C@]1(O)C[C@H]2CN(CCc3c([nH]c4ccccc34)[C@@](C(=O)OC)(c3cc4c(cc3OC)N(C=O)[C@H]3[C@@](O)(C(=O)OC)[C@H](OC(C)=O)[C@]5(CC)C=CCN6CC[C@]43[C@@H]65)C2)C1` [vincristine], at P-glycoprotein (Pgp) [5], the “protection from microtubule depolymerization in PgpGFP-transfected HeLa cells (2)” value is given as 25–125 fold.
